Data on 4 compounds can be found in US20240366638A1, “[…] FOR TREATING PSY[…]” (SYNAPTIVE THERAPEUTICS LLC, priority 2021, published 2024).

The test system of test [1] is male C57BL/6 mice. Put plainly: Open field test (OFT), time in center zone. The arrangement: key to OFT (center time): ↓ = decrease; ↑ = increase; neg = negative; pos = positive; ns = not statistically significant. In kind it is in vivo. The conditions noted are these: for OFT (center time): summary of effect on behavior, doses tested IP; for Time in the center zone of the open field chamber, statistical comparison between groups: various doses IP, 30 min period, one-way ANOVA with Tukey's test, diazepam positive control. The procedure: (§1) Methods. The open field test (OFT) was conducted by placing a mouse in a gray chamber 40×40 cm of 30 cm height and allowed to explore at will for 30 minutes. A digital camera positioned above the chamber recorded behavior. Animals that spend more time in the center (open area) compared to along the walls (thigmotaxis) are deemed less anxious. The open field apparatus was cleaned with Peroxigard wipes after each use.
(§2) Statistical analysis. Data were analyzed using a one-way ANOVA with drug dose as the primary factor. Post-hoc multiple comparison analysis was performed following significant main effects using Tukey's multiple comparisons test (GraphPad Prism 9.2.0). Statistical significance was set at P<0.05.
(§3) Results. A total of 170 male C57BL/6 mice were used for this study (see TABLE 3.). One mouse in the diazepam group died of unknown causes. Another mouse developed a skin condition in the aeruginascin (1.0 mg/kg) group and was excluded from the FST test. All other test groups consisted of N=10 per group. Statistical comparisons are noted in each figure legend.

For test [2], the system named is male C57BL/6 mice. Put plainly: Open field test (OFT), locomotor activity. The test is classed as in vivo. Further details: key to OFT: ↓ = decrease; ↑ = increase; neg = negative; pos = positive; ns = not statistically significant. The conditions noted are these: for OFT: summary of effect on overall locomotor activity, doses tested IP, mice; for Locomotor activity in the open field, statistical comparison between groups: various doses IP, 30 min period, one-way ANOVA with Tukey's test, diazepam positive control. The procedure: as §1, §2, §3

The test system of test [3] is male C57BL/6 mice. Put plainly: Elevated plus maze (EPM), time on open arms. The arrangement: key to EPM: ↓ = decrease; ↑ = increase; neg = negative; pos = positive; ns = not statistically significant. The test is classed as in vivo. The conditions noted are these: for EPM: summary of effect on behavior (time on open arms), doses tested IP; for Time spent on the open arms of the EPM, statistical comparison between groups: various doses IP, 5 minutes, one-way ANOVA with Tukey's test, diazepam positive control. The procedure:
(§4) The elevated plus maze (EPM) is a behavioral assay that measures anxiety in rodents. The apparatus is composed of open and closed arms arranged in a “plus” measuring, 35 cm arm length; 5 cm arm width; 20 cm wall height and stands 61 cm height. Each mouse was placed on the maze within the center area facing towards an open arm and allowed to explore the EPM for 5 minutes. The experimenter observed the mouse from outside the test room through an observational window. Behavior was recorded via a digital camera mounted above the maze. The apparatus was cleaned with Peroxigard wipes after each trial.
as §2, §3

Test [4] deals with male C57BL/6 mice. Put plainly: Tail suspension test (TST). The test is classed as in vivo. The following applies: for TST: summary of effect on behavior, doses tested IP, mice; for Tail suspension test activity (time immobile), statistical comparison between groups: various doses IP, 6 minutes, one-way ANOVA with Tukey's test, ketamine positive control. The procedure:
(§5) The tail-suspension test (TST) is a model of depression and has been used to screen prospective antidepressant compounds. It involves suspending mice above the ground by their tails with tape for a predetermined time. A 17 cm piece of tape was taped to the tail (2 cm of the 17 cm) of each mouse and then attached to a metal shelf for 6 minutes. Each mouse was digitally recorded and data analyzed using specialized software with particular focus on time immobile. After the trial, tape was removed and mice returned to their home cage.
as §2, §3

Test [5] concerns male C57BL/6 mice. Put plainly: Forced swim test (FST). In kind it is in vivo. Further details: key to FST: ↓ = decrease; ↑ = increase; neg = negative; pos = positive; ns = not statistically significant. The conditions noted are these: for FST: summary of effect on behavior, doses tested IP, mice; for Forced swim test activity, statistical comparison between groups: various doses IP, 6 minutes, one-way ANOVA with Tukey's test, ketamine positive control. The procedure: (§6) The forced swim test is a classic behavioral assay to test for depressive behavior such as immobility. The apparatus is composed of a Plexiglas cylinder measuring (20 cm diameter, 45 cm height) that is filled with water maintained at room temperature (23-25 C). During testing, mice were placed into the water by the nape of the neck facing the wall and released and behavior recorded via a digital camera for 6 minutes. After the test, mice were dried off with a towel and placed in their home cage in which half is heated by a heating pad placed underneath the cage. Fecal matter was removed after every test. Water was changed after 10 mice were run in each cylinder. After the completion of the experiment, water was drained and the cylinder cleaned with Peroxigard wipes.
as §2, §3

The subject of test [6] is male C57BL/6 mice. Put plainly: Animal models of anxiety and depression in mice, overall (OFT, EPM, TST, FST). The following applies: IP, FST taken together. The test is classed as in vivo. The procedure: Summary. The goal of the present project was to assess psilocybin metabolites in animal models of anxiety and depression in mice. Specifically, baeocystin (0.3 mg/kg-30 mg/kg), norbaeocystin (0.3-3.0 mg/kg), aeruginascin (0.3-3.0 mg/kg) and norpsilocin (0.3-3.0 mg/kg) were tested in the open field test (OFT), elevated plus maze (EPM), tail suspension test (TST) and forced swim test (FST). Overall, most compounds were ineffective and/or increased negative behaviors.
as §1, §4, §5
as §6, with “After the completion of the experiment, water was drained and the cylinder cleaned with Peroxigard wipes.” left out
Statistical analysis. Data were analyzed using a one-way ANOVA with drug dose as the primary factor. […]

For test [7] the following is noted: cited from earlier work.

Each structure is given as a SMILES string. “Also recorded” adds a separate entry of the source.

As to `C[N+](C)(C)CCc1c[nH]c2cccc(OP(=O)(O)O)c12` [Aeruginascin], in test [1] (mice), the “OFT (center time)” value is “ns”. For the same compound, in test [1], the “Time in the center zone of the open field chamber, statistical comparison between groups” value (“Time in the center zone” for short) is “no significant differences between groups”. In test [2], the OFT entry is on record as “↓ (neg)”; the “Locomotor activity in the open field, statistical comparison between groups” value (“Locomotor activity in the open field” below) is “significant difference between aeruginascin 0.3 and 1.0 mg/kg”. Also, the EPM result in test [3] (mice) is “ns”. Besides, the “Time spent on the open arms of the EPM, statistical comparison between groups” value (from here on “Time spent on the open arms of the EPM”) in test [3] is given as “no differences between groups”. For the same compound, in test [4], the TST result is “↑ (neg)”; the “Tail suspension test activity (time immobile), statistical comparison between groups” value (“Tail suspension test activity” for short) is “significant differences between saline and ketamine and all doses of aeruginascin”. For the same compound, in test [5], the FST result was “↑ (neg)”; the “Forced swim test activity, statistical comparison between groups” value (“Forced swim test activity” below) is “significant differences between ketamine and aeruginascin 0.3 and 3.0 mg/kg doses”. Also, the “Overall effect across behavioral tests of anxiety and depression” value (shortened to “Overall effect across behavioral tests”) in test [6] was “either produced no significant effect or a significant negative impact across all behavioral tests”.
On to `NCCc1c[nH]c2cccc(OP(=O)(O)O)c12` [Norbaeocystin], for which the “OFT (center time)” value in test [1] (mice) was “↓ (neg)”. Also, the “Time in the center zone” value in test [1] was “significant difference between diazepam and the highest dose of norbeaocystin”. Moreover, in test [2], the OFT entry is on record as “ns” and the “Locomotor activity in the open field” value was “a trend towards a difference between norbaeocystin 1.0 vs. 3.0 mg/kg”. The EPM result in test [3] (mice) was “ns”. Besides, in test [3], the “Time spent on the open arms of the EPM” value is given as “no differences between groups”. Further, in test [4], the TST entry was “↑ (neg)”; the “Tail suspension test activity” value is “significant differences between saline and ketamine and all doses of norbaeocystin”. In test [5], the FST result is reported as “ns” and the “Forced swim test activity” value is “no significant differences between groups”. Further, in test [6], the “Overall effect across behavioral tests” value is given as “either produced no significant effect or a significant negative impact across all behavioral tests”.
Turning to `CNCCc1c[nH]c2cccc(O)c12` [Norpsilocin], the “Time spent in the center zone in the OFT” value in test [1] (3.0 mg/kg, IP, mice) was “the only compound that increased time spent in the center zone in the OFT and this effect was highly significant”. Further, the “OFT (center time)” value in test [1] (mice) is “↑ (pos)”. Also, the “Time in the center zone” value in test [1] is “significantly increased time spent in the center zone of the OFT; also recorded: highly significant differences between the highest dose of norpsilocin and all other groups”. Also, in test [2], the OFT entry is recorded as “↓ (neg)”; the “Locomotor activity in the open field” value was “significant differences between diazepam and norpsilocin 1.0 and 3.0 mg/kg”. For the same compound, the EPM result in test [3] (mice) is recorded as “ns”. The “Time spent on the open arms of the EPM” value in test [3] is recorded as “no differences between groups”. For the same compound, in test [4], the TST entry was “↑ (neg)”; the “Tail suspension test activity” value is “significant differences between ketamine and all doses of norpsilocin”. Further, in test [5], the FST result is given as “ns” and the “Forced swim test activity” value is “no differences between any groups”. Also, the “Overall effect across behavioral tests” value in test [6] is “can exert anxiolytic effects in mice using certain behavioral procedures; also recorded: have anxiolytic activity and no harmful psychoactive effects, including no depressive activity”.
In the case of `CNCCc1c[nH]c2cccc(OP(=O)(O)O)c12` [Baeocystin], in test [1] (mice), the “OFT (center time)” value is given as “ns”. Moreover, the “Time in the center zone” value in test [1] was “no significant difference between groups”. Moreover, in test [2], the OFT result was “↓ (neg)”; the “Locomotor activity in the open field” value was “significant differences between the highest dose of baeocystin and all other groups”. Further, the “Time spent on the open arms in the EPM” value in test [3] (10 mg/kg, IP, mice) was “tended to increase time spent on the open arms however, this did not reach statistical significance”. Besides, in test [3] (30 mg/kg (highest dose), IP, mice), the “Time spent on the open arm in the EPM” value is “significantly increased time spent on the open arm”. In addition, in test [3] (mice), the EPM result is “↑ (pos)”. In test [3], the “Time spent on the open arms of the EPM” value is listed as “the highest dose of baeocystine increased time spent on the open arm compared to saline”. In test [4], the TST result is reported as “↑ (neg)”; the “Tail suspension test activity” value is “significant differences between the two highest doses of baeocystin and other groups”. For the same compound, in test [5], the FST result was “ns” and the “Forced swim test activity” value is “no significant differences between groups”. In addition, the “Overall effect across behavioral tests” value in test [6] was “can exert anxiolytic effects in mice using certain behavioral procedures; also recorded: have anxiolytic activity and no harmful psychoactive effects, including no depressive activity”. For the same compound, the “Hallucinogenic effect in a self-administered assay” value in test [7] (4 mg of baeocystin, Gartz research paper) is given as “a gentle hallucinogenic experience”. Besides, the “Psychoactivity in humans compared with psilocybin” value in test [7] (10 mg of baeocystin, study reported by Gartz) was “about as psychoactive as a similar amount of psilocybin”.
